# Data from patent US20250367323A1, “PLATFORM FOR RADIOLYTIC NEUROMODULATION” (THE UAB RESEARCH FOUNDATION, priority 2024, published 2025).
# Where two headings read alike, the source gives them in different places.
# What was measured:
# [1] = tested on: isolated Drosophila brains
# [2] = target: T1, dTRPA1(A)10b (Drosophila melanogaster, UniProt Q7Z020); assay type: cell-based; settings: for change in intracellular Ca2+ on agonist administration: HEK293 cells expressing dTRPA1(A)10b, H2O2 10 μM, BITC 100 μM added at end of experiment
# T1 construct: expressed in transfected cells; host or cells: HEK293
# T1 sequence (Q7Z020 with tags, fused parts or gaps isoform Q7Z020-5): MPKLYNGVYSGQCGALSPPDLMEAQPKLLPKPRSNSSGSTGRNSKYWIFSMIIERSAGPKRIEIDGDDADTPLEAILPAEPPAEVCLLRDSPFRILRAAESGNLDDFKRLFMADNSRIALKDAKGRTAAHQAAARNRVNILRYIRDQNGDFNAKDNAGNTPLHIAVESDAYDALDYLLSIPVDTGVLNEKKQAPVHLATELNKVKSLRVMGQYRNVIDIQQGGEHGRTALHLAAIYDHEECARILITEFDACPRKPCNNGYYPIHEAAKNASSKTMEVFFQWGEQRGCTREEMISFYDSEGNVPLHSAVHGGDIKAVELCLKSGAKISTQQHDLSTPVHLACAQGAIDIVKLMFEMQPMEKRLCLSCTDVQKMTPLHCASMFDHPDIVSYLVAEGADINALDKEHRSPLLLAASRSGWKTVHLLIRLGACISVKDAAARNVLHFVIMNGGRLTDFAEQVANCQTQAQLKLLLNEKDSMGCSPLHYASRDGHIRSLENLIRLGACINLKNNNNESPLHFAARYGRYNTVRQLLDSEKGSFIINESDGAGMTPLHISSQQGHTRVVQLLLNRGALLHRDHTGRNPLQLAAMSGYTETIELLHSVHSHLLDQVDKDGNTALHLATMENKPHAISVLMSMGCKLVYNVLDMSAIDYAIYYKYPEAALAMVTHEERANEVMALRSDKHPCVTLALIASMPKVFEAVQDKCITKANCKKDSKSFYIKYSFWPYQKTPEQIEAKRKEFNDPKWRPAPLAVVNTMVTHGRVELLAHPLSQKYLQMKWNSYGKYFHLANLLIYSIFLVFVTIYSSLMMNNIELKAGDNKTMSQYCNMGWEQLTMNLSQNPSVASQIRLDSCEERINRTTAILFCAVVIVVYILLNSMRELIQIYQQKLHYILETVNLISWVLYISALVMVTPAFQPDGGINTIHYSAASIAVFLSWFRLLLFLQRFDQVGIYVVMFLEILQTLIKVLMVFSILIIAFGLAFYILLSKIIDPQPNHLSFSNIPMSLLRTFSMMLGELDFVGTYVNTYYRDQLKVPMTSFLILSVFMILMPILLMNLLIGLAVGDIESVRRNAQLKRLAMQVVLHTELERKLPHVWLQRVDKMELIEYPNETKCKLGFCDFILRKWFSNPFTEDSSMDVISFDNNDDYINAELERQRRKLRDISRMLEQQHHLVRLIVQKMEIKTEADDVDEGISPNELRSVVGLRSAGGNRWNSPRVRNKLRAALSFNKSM
# Description: (§1) (FIG. 1A) Cells expressing either dTRPA1, mTRPA1, or mCherry were Xray irradiated (0.5 nGy/cm^2/sec) for 60 sec while monitoring changes in intracellular Ca^2+. BITC (100 μM) was added at the end of the experiments to confirm TRPA1 expression. […] (FIG. 1B) As in (FIG. 1A), except cells were stimulated with H2O2 (10 μM) administration. […] One-way ANOVA with Tukey's multiple comparisons test.
# (§2) The Xrs source (FIG. 3A) was mounted to a Zeiss 710 LSM confocal imaging system. Changes in intracellular Ca^2+ were detected using a Fluo-4 Direct™ calcium assay kit. Fluo-4 epifluorescence changes were computed as (Fi-Fo; ΔF)/Fo, where Fi, is the fluorescence intensity at any frame and F0, is the resting fluorescence. F0 was calculated as the averaged fluorescence of the first 3 frames before stimulation.
# [3] = target: T2, mouse TRPA1 (mTRPA1) (Mus musculus, UniProt Q8BLA8); assay: Intracellular Ca2+ imaging (Fluo-4) in HEK293 cells expressing mTRPA1; assay type: cell-based; settings: H2O2 10 μM, BITC 100 μM added at end of experiment
# T2 construct: expressed in transfected cells; host or cells: HEK293
# T2 sequence (Q8BLA8 whole entry): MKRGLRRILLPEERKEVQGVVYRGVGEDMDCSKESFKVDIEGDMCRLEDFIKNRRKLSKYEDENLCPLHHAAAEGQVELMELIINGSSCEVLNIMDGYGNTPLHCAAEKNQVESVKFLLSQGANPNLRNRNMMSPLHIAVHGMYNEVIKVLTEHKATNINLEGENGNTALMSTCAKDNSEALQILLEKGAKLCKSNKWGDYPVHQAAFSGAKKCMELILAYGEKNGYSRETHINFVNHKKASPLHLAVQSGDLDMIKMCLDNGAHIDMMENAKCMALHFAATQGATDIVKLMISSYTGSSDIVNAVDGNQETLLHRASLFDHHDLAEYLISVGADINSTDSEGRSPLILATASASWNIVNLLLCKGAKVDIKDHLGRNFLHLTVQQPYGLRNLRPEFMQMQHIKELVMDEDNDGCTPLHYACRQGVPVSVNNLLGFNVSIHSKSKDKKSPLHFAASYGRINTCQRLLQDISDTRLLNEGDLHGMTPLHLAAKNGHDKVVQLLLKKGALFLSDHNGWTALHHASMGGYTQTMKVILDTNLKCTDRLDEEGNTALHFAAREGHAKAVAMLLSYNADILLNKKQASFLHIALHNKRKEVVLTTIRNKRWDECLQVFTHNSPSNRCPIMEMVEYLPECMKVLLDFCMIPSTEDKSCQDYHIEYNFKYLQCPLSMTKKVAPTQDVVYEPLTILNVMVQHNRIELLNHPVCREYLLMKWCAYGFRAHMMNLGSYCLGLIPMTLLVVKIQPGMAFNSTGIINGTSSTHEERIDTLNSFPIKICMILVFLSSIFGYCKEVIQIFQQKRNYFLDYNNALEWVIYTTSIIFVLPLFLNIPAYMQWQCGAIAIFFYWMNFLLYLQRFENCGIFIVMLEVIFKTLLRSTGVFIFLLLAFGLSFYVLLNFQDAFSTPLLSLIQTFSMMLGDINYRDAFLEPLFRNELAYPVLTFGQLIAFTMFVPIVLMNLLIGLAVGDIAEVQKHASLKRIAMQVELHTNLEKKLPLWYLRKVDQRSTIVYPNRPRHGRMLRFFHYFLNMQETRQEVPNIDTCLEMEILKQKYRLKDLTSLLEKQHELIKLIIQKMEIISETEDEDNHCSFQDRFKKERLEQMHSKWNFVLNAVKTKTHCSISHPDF
# Description: as §1, §2
# [4] = tested on: HEK293 cells expressing mCherry; assay: Intracellular Ca2+ imaging (Fluo-4) in HEK293 cells expressing mCherry control; assay type: cell-based, human; settings: HEK293 cells expressing mCherry only; H2O2 10 μM; BITC 100 μM added at end of experiment
# Description: as §1, §2
# [5] = tested on: isolated Drosophila brains; settings: brains perfused with 200 μM H2O2; electrode in vs out of brain p<0.0042; n=3
# [6] = tested on: Drosophila; settings: flies fed food containing H2O2 (1%) for 5 hours vs vehicle; 1 hour acclimation; p<0.03; n=29-30
compound,measurement,setting,value
"N[C@@H](Cc1ccc(O)c(I)c1)C(=O)O [3IY, 3-iodotyrosine]",effect on Xrs-stimulated DA release (AUC of amperometric signals) after DA depletion,"[1]; 10 mg/mL orally administered to flies for 24 hr vs vehicle, p<0.013, n=13-15",significantly reduces the ability of Xrs to stimulate DA release
CC1(C)CC(O)CC(C)(C)N1[O] [Tempol],effect on Xray-induced Ca2+ increases,"[2]; Xray irradiation, ROS scavenger present",blocked
"NC1=N[C@H](O)[C@H]2[C@H]3O[C@]4(O)O[C@@H]([C@@H](O)[C@@]2(N1)[C@@H]4O)[C@]3(O)CO [TTX, tetrodotoxin]",effect on Xrs-stimulated DA release (AUC of amperometric current),[1],robustly inhibits this release
CC(C)c1ccc(NC(=O)Cn2cnc3c2c(=O)n(C)c(=O)n3C)cc1 [HC-030031],effect on Xrs-stimulated DA release (AUC of amperometric current),"[1]; Xrs 0.1 Gy/sec for 250 msec, brains incubated 5 min with 1 μM TTX or 100 μM HC-030031 vs control/vehicle",inhibits Xrs-stimulated DA release
"OO [H2O2, hydrogen peroxide]",change in intracellular Ca2+ on agonist administration,[2],promotes an acute increase in intracellular Ca^2+
same,change in intracellular Ca2+ on agonist administration,[3],not observed
same,change in intracellular Ca2+ on agonist administration,[4],not observed
same,DA release (peak amperometric current),[5],stimulates DA release
same,locomotion (total beam crossings over a 4 hr period),[6],significantly stimulates locomotion
"S=C=NCc1ccccc1 [BITC, benzyl isothiocyanate]",change in intracellular Ca2+ on agonist administration,[2],increases intracellular Ca^2+
same,change in intracellular Ca2+ on agonist administration,[3],increases intracellular Ca^2+
same,change in intracellular Ca2+ on agonist administration,[4],modest increase in Ca^2+
